Active and inactive are the calls of the source. The rule behind the calls is not given here.
Legend:
THP-M [1] = test: Effect on ASC (apoptosis-related speck-like protein containing a CARD) level in LPS/nigericin-induced human THP-M cells assessed as inhibition of pro-IL-1beta level at 20 to 60 uM pretreated for 24 hrs followed by stimulated with LPS for 3 hrs and ATP for 1 hr by Western blot analysis relative to control; assay type: functional, cell-based; conditions: dose 20-60 µM, time 28.0 hrs
[2] = biological target: NLR family CARD domain-containing protein 4 (Homo sapiens) (UniProt Q9NPP4); test: Inhibition of NLRC4 inflammasome in flagellin of Salmonella typhimurium-induced human THP-M cells assessed as inhibition of IL-1beta level at 20 to 60 uM pretreated for 24 hrs followed by stimulated with LPS by ELISA; assay type: cell-based; conditions: dose 20-60 µM
[3] = biological target: T1, Interferon-inducible protein AIM2 (Homo sapiens) (UniProt O14862); test: Inhibition of AIM2 inflammasome in poly(DA:DT)-induced human THP-M cells assessed as inhibition of IL-1beta level at 20 to 60 uM pretreated for 24 hrs followed by stimulated with LPS by ELISA; assay type: cell-based; conditions: dose 20-60 µM
T1 sequence (whole entry): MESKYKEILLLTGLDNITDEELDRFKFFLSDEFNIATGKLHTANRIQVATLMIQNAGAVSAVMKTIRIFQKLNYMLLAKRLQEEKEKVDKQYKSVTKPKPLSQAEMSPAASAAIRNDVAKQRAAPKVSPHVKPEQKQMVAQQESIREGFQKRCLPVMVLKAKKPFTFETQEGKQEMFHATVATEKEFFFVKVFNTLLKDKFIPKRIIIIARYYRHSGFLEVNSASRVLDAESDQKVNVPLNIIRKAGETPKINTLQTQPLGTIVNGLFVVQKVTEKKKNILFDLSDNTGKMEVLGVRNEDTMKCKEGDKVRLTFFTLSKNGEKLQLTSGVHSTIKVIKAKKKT

THP-M [4] = test: Effect on transcription of NLRP3 in LPS-induced human THP-M cells assessed as NLRP3 mRNA expression at 10 to 50 uM pretreated for 24 hrs followed by stimulated with LPS for 4 hrs by qRT-PCR analysis; assay type: functional, cell-based; conditions: dose 10-50 µM, time 28.0 hrs
THP-M [5] = test: Inhibition of NLRP3 and […] protein-protein interaction in human THP-M cells assessed as suppression activation of NLRP3 inflammasome by affecting ASC oligomerization at 10 to 50 uM pretreated for 24 hrs followed by stimulated with LPS for 3 hrs and ATP for 1 hr by co-IP analysis; assay type: cell-based; conditions: dose 10-50 µM, time 28.0 hrs
THP-M [6] = test: Induction of mitochondrial membrane potential loss in human THP-M cells pretreated for 24 hrs followed by stimulated with LPS for 3 hrs and ATP for 1 hr by Mitochondrial damage experiment; assay type: functional, cell-based; conditions: time 28.0 hrs
THP-M [7] = test: Reduction of reactive oxygen species production in human THP-M cells pretreated for 24 hrs followed by stimulated with LPS for 3 hrs and ATP for 1 hr by Mitochondrial damage experiment; assay type: functional, cell-based; conditions: time 28.0 hrs
Rattus norvegicus [8] = test: (§1) Anti-inflammatory activity against complete Freund's adjuvant (CFA)-induced arthritis rat model assessed as reduction in body weight at 20 to 80 mg/kg, ip treated after 17 days of CFA challenge measured after 18 days (day 17 to 34) relative to control; assay type: functional, organism-based; conditions: dose 20-80 mg/kg, time 18.0 day
Rattus norvegicus [9] = test: Anti-inflammatory activity against complete Freund's adjuvant (CFA)-induced arthritis rat model assessed as recovery in degree of swelling in left hind paw at 20 to 80 mg/kg, ip treated after 17 days of CFA challenge measured after 18 days (day 17 to 34) relative to control; assay type: functional, organism-based; conditions: dose 20-80 mg/kg, time 18.0 day
Rattus norvegicus [10] = test: Anti-inflammatory activity against complete Freund's adjuvant (CFA)-induced arthritis rat model assessed as recovery in degree of swelling in right hind paw at 20 to 80 mg/kg, ip treated after 17 days of CFA challenge measured after 18 days (day 17 to 34) relative to control; assay type: functional, organism-based; conditions: dose 20-80 mg/kg, time 18.0 day
Rattus norvegicus [11] = test: Anti-inflammatory activity against complete Freund's adjuvant (CFA)-induced arthritis rat model assessed as decrease in spleen index at 20 to 80 mg/kg, ip treated after 17 days of CFA challenge measured after 18 days (day 17 to 34) relative to model group; assay type: functional, organism-based; conditions: dose 20-80 mg/kg, time 18.0 day
Rattus norvegicus [12] = test: Anti-inflammatory activity against complete Freund's adjuvant (CFA)-induced arthritis rat model assessed as decrease in thymus index at 20 to 80 mg/kg, ip treated after 17 days of CFA challenge measured after 18 days (day 17 to 34) relative to model group; assay type: functional, organism-based; conditions: dose 20-80 mg/kg, time 18.0 day
Rattus norvegicus [13] = test: Anti-inflammatory activity against complete Freund's adjuvant (CFA)-induced arthritis rat model assessed as decrease in spleen size at 20 to 80 mg/kg, ip treated after 17 days of CFA challenge measured after 18 days (day 17 to 34) relative to model group; assay type: functional, organism-based; conditions: dose 20-80 mg/kg, time 18.0 day
Rattus norvegicus [14] = test: Anti-inflammatory activity against complete Freund's adjuvant (CFA)-induced arthritis rat model assessed as decrease in serum IL-1beta level at 20 to 80 mg/kg, ip treated after 17 days of CFA challenge measured after 18 days (day 17 to 34) by ELISA relative to model group; assay type: functional, organism-based; conditions: dose 20-80 mg/kg, time 18.0 day
Rattus norvegicus [15] = test: as §1, with “NLRP3 in rat synovium from the left rear ankle” for “body weight”, “34) by immunohistochemistry based assay” for “34)”, “model group” for “control”; assay type: functional, organism-based; conditions: dose 20-80 mg/kg, time 18.0 day
Rattus norvegicus [16] = test: as §1, with “NLRP3 in rat synovium from the left rear ankle” for “body weight”, “34) by immunofluorescence based assay” for “34)”, “model group” for “control”; assay type: functional, organism-based; conditions: dose 20-80 mg/kg, time 18.0 day
[17] = Tmax in Sprague-Dawley rat at 20 mg/kg, IG measured upto 1440 mins by LC-MS/MS analysis; assay type: ADME, organism-based; conditions: in vivo, po
[18] = Cmax in Sprague-Dawley rat at 20 mg/kg, IG measured upto 1440 mins by LC-MS/MS analysis; assay type: ADME, organism-based; conditions: in vivo, po
[19] = AUC (0 to t) in Sprague-Dawley rat at 20 mg/kg, IG measured upto 1440 mins by LC-MS/MS analysis; assay type: ADME, organism-based; conditions: in vivo, po
[20] = MRT (0 to t) in Sprague-Dawley rat at 20 mg/kg, IG measured upto 1440 mins by LC-MS/MS analysis; assay type: ADME, organism-based; conditions: in vivo, po
[21] = Apparent clearance during terminal phase in Sprague-Dawley rat at 20 mg/kg, IG measured upto 1440 mins by LC-MS/MS analysis; assay type: ADME, organism-based; conditions: in vivo, po
[22] = Apparent volume of distribution during terminal phase in Sprague-Dawley rat at 20 mg/kg, IG measured upto 1440 mins by LC-MS/MS analysis; assay type: ADME, organism-based; conditions: in vivo, po, read-out: Vz/F
[23] = Half life in Sprague-Dawley rat at 20 mg/kg, ip measured upto 720 mins by LC-MS/MS analysis; assay type: ADME, organism-based; conditions: in vivo
[24] = AUC (0 to t) in Sprague-Dawley rat at 20 mg/kg, ip measured upto 720 mins by LC-MS/MS analysis; assay type: ADME, organism-based; conditions: in vivo
[25] = AUC (0 to infinity) in Sprague-Dawley rat at 20 mg/kg, ip measured upto 720 mins by LC-MS/MS analysis; assay type: ADME, organism-based; conditions: in vivo, 12 h
[26] = MRT (0 to t) in Sprague-Dawley rat at 20 mg/kg, ip measured upto 720 mins by LC-MS/MS analysis; assay type: ADME, organism-based; conditions: in vivo
[27] = MRT (0 to infinity) in Sprague-Dawley rat at 20 mg/kg, ip measured upto 720 mins by LC-MS/MS analysis; assay type: ADME, organism-based; conditions: in vivo
[28] = Bioavailability in Sprague-Dawley rat at 20 mg/kg, ip measured upto 720 mins by LC-MS/MS analysis; assay type: ADME, organism-based; conditions: in vivo

Chain of NLR family CARD domain-containing protein 4 (Homo sapiens) (Q9NPP4 whole entry, the tested form may be a part): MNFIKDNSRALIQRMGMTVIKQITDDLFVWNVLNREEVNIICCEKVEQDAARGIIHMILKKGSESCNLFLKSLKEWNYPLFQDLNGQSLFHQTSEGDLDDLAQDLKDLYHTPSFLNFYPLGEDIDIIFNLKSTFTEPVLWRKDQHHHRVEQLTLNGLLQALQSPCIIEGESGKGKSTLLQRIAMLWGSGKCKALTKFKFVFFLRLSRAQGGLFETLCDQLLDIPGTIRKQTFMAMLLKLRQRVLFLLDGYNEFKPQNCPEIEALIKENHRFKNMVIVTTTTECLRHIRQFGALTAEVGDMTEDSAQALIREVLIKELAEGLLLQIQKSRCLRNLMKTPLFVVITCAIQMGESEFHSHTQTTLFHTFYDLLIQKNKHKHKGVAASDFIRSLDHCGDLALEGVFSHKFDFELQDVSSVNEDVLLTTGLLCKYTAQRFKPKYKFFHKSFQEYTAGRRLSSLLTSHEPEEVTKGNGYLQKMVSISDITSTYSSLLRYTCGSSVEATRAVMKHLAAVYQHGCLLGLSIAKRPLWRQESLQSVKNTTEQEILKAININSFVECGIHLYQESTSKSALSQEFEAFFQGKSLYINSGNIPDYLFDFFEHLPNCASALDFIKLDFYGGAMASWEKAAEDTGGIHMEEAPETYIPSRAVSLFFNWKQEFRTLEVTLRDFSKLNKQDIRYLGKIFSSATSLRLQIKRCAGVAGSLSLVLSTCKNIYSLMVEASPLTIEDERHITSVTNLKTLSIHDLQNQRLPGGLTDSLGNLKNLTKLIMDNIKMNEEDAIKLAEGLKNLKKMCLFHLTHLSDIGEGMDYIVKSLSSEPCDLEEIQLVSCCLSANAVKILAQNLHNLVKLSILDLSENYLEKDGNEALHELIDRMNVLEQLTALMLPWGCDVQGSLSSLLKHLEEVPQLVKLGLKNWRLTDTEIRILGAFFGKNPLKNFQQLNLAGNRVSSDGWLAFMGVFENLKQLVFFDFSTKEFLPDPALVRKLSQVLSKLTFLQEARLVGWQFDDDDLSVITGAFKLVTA

- inhibition [2]: inactive
- inhibition [3]: inactive
- Tmax [17]: 16.7 min
- Cmax [18]: 448 ng/mL
- AUC(0-t) at 24 h [19]: 837 ng·h/mL
- MRT last at 24 h [20]: 138 min
- CL/F [21]: 410 mL/min/kg
- Vd/F [22]: 73.4 L/kg
- half-life [23]: 44.1 min
- AUC(0-t) at 12 h [24]: 1860 ng·h/mL
- AUC [25]: 112685 ng·min/mL
- MRT last at 12 h [26]: 41.9 min
- MRT inf [27]: 44.5 min
- bioavailability [28]: 11.5%
SMILES: COCCCNC(=O)c1ccc(Cn2c(SCC3CCCCC3)nc3ccncc32)cc1
- inhibition (THP-M [1]): inactive
- Activity (THP-M [4]): inactive
- inhibition (THP-M [5]): Dose-Dependent Effect
- Activity (THP-M [6]): inactive
- Activity (THP-M [7]): inactive
- Activity (Rattus norvegicus [8]): Active
- Activity (Rattus norvegicus [9]): Active
- Activity (Rattus norvegicus [10]): Active
- Activity (Rattus norvegicus [11]): Active
- Activity (Rattus norvegicus [12]): Active
- Activity (Rattus norvegicus [13]): Active
- Activity (Rattus norvegicus [14]): Active
- Activity (Rattus norvegicus [15]): Active
- Activity (Rattus norvegicus [16]): Active

From ChEMBL document CHEMBL5500404, “Discovery and Development of NLRP3 Inhibitors Targeting the LRR Domain to Disrupt NLRP3-NEK7 Interaction for the Treatment of Rheumatoid Arthritis” (J Med Chem, 2024)
